Reference: patent US11225505B2, “Antimicrobial polymyxin derivative compounds” (MONASH UNIVERSITY, priority 2015, dated 2022)
≈ marks a conversion by molar mass, not a printed value. Where a SMILES comes first, the peptide text is derived from it. Bridges are numbered along the chain shown (N, C = ends). [ ]: non-standard residue; d: D form. The star is where a group is joined. X1 = O=C(c1ncc(Cl)cc1Cl)*; Dab = NCC[C@H](N)C(=O)O; Abu = CC[C@H](N)C(=O)O; Dap = NC[C@H](N)C(=O)O

How the values were obtained:
[1] = test system: Acinetobacter baumannii FADDI-AB030; test: microbe, parasite or virus in culture; assay type: cell-based; settings: FADDI-AB030
How it was run: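 Broth microdilution MIC in cation-adjusted Mueller-Hinton broth per CLSI M100-S24; lipopeptides tested as TFA salts. FADDI-AB030 is a multidrug-resistant clinical isolate. Polymyxin B sulphate served as control.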

A. baumannii FADDI-AB030 = test: In vivo efficacy in a neutropenic mouse lung infection model; parameters: species or system Acinetobacter baumannii; settings: 24 h
Protocol: The in vivo efficacy of several compounds was examined in a neutropenic mouse lung infection model against the clinical isolate A. baumannii FADDI-AB030. This Gram-negative isolate is highly multi drug-resistant as illustrated in Table 7.
FADDI-AB030 was subcultured on nutrient agar plates from the −80° C. stock. One colony of the bacterial strain was dispersed in 10-mL CAMHB and incubated overnight. On day 2, an aliquot (0.2 mL) of overnight culture suspension was dispersed in 20-mL CAMHB and incubated for 1.5-2.5 h for production of early log-phase growth bacterial culture. The bacteria in the early log-phase growth suspension were concentrated by centrifugation (3,220 g for 10 min) and re-suspended in sterile 0.9% saline for inoculation into mice. The bacterial cell concentration (colony forming unit [CFU]/mL) in saline was estimated by determining the optical density (OD) of the suspension at 600 nm, and confirmed by plating the suspension on nutrient agar plates. […]
Lung infection was produced as follows. […] Bacterial burdens in lungs were determined at 2 h after inoculation (untreated controls) and 24 h later (untreated controls and compound-treated mice). […] The bacterial colonies on the agar plate were counted and the log10 CFU/lung in each mouse was calculated (FIG. 1). […]

## CC[C@@H]1NC(=O)[C@@H](CC(C)C)NC(=O)[C@H](CCN)NC(=O)[C@@H](NC(=O)[C@H](CN)NC(=O)[C@@H](NC(=O)[C@H](CCN)NC(=O)c2ncc(Cl)cc2Cl)[C@@H](C)O)CCNC(=O)[C@H]([C@@H](C)O)NC(=O)[C@H](CCN)NC(=O)[C@H](CCN)NC1=O [Compound 1] (X1-[Dab]T[Dap][Dab][Dab][dL][Abu][Dab][Dab]T; lactam 4-C)
[1]
  Minimum inhibitory concentration: 1 µg/mL (≈ 0.861 µM)
A. baumannii FADDI-AB030; 45 mg/kg total, neutropenic mice
  in vivo antibacterial efficacy (bacterial burden in lung, FIG. 1) compared with polymyxin B at the same dose: improved in vivo antibacterial efficacy
A. baumannii FADDI-AB030; total doses of 90 and 180 mg/kg
  bacterial cells in the lung (FIG. 2): no longer detectable in the lung
